Source: patent US20110159304A1, “ANTI-SULPHATE REDUCING BACTERIA COMPOSITION COMPRISING 1,2-BENZISOTHIAZOL-3(2H)-ONE, IRGASAN, BENZYL-2-BROMOACETATE, 2,2-DIBROMO-2-CYANOACETAMIDE, AND 2-BROMO-2-NITROPROPAN-1,3-DIOL” (KOREA GAS CORPORATION, priority 2009, published 2011)
Where two headings read alike, the source gives them in different places.

Legend:
Type in all cases: cell-based
[1] = tested on: Desulfovibrio desulfuricans KCTC 5786; experiment: Antibacterial activity test of antibacterial agent-added coating material (adhesive, primer)
Procedure: (§1) The experiment proceeded with varying the concentration of the compounds used in the experiment to 1.0%, 0.1%, 0.01%, and 0.001%. The 8 mm of a paper disk was placed on the plate prepared by plating the culture, and were inoculated with 50 μl of various concentrations of the compound. After culturing the strain for 24, and 48 hrs at 37° C., the clear zone (mm) representing antibacterial activity was measured and Minimum Inhibitory Concentration (MIC) was determined.
Test equipment and materials, and test condition are as follows: • Coating material type: adhesive (Canusa), primer (Polyken) • Mixed antibacterial agent's concentration: control, 0.5, 1.0, 2.0, 5.0 wt %
As an adhesive specimen, the components were mixed by manual stirring in an oven at 150° C., and then an 1 mm-thick adhesive sheet was fabricated. As a primer specimen, a 0.2 mm-thick sheet having a primer dry film was fabricated. The specimen was diced into a size of 15 mm×15 mm, and after UV sterilization, the antibacterial activity of the specimen was assessed using the same environment and method as in the test method of Experiment Example 1 described above.

[2] = tested on: Desulfovibrio desulfuricans KCTC 5786; experiment: Antibacterial activity evaluation, paper disk clear zone and MIC; details: for zone of inhibition at 0.01 % / zone of inhibition at 0.1 % / zone of inhibition at 1 % / zone of inhibition at 0.001 %: Desulfovibrio desulfuricans; for antibacterial activity relative to other commercially used antibacterial agents: compared by MIC with 1-hydroxypyridine-2-tionzinc, 2-methyl-isothiazolin-3-one and the like; for zone of inhibition at 0.001 %: antibacterial agent concentration 0.001%; for MIC minimum inhibitory concentration: paper disk test, concentrations 1.0-0.001%, 37° C.
Procedure: Desulfovibrio desulfuricans KCTC 5786 was used as a test sulphate reducing bacteria strain.
The all materials used in the test, disk paper, medium and so on, were sterilized for 15 min at 121° C. Bacteria's culture and antibacterial activity test were performed in an anaerobic chamber (Anaerobic System, Form a Sci; condition maintaining not more than 5 ppm of oxygen concentration).
After culturing the test strain for not less than 3 days, the volume of the culture was adjusted to 10^5-7/mL to prepare for plating it on Desulfovibrio medium, and the test compounds were resolved in a suitable solvent for use (ethanol for lipid soluble compounds, and distilled water for water soluble compounds).
as §1

[3] = tested on: Desulfovibrio desulfuricans KCTC 5786; experiment: Antibacterial activity test after thermal shock (paper disk clear zone); details: for clear zone after thermal shock / clear zone before thermal shock: 0.1% condition; for clear zone after thermal shock: after thermal shock (180° C., 1 hr); for antibacterial activity after thermal shock: after 180° C., 1 hour, 0.1%
Procedure: as §1
Applying the heat shrinkable sheet using flames of torch, the temperature increased to about 150° C. and the exposure time was around 15 minutes. […] After 1,2-benzisothiazol-3(2H)-one, irgasan, benzyl-2-bromoacetate, 2,2-dibromo-2-cyanoacetamide, and 2-bromo-2-nitropropan-1,3-diol were exposed to higher temperature (180° C.) for a longer time (1 hour), the antibacterial activity was measured at a concentration of 0.1% using the same method as Experiment Example 1 (see, Table 3, FIGS. 3a to 3e).

[4] = adhesive (Canusa) with 0.5 wt % antibacterial agent
[5] = adhesive (Canusa) with 1.0 wt % antibacterial agent
[6] = adhesive (Canusa) with 2.0 wt % antibacterial agent
[7] = adhesive (Canusa) with 5.0 wt % antibacterial agent
[8] = primer (Polyken) with 0.5 wt % antibacterial agent
[9] = primer (Polyken) with 1.0 wt % antibacterial agent
[10] = primer (Polyken) with 2.0 wt % antibacterial agent
[11] = primer (Polyken) with 5.0 wt % antibacterial agent
[12] = KCTC5786, antibacterial agent concentration 0.01%, 8 mm paper disk, 50 μl, — = negative, read-out: CZ (mm) clear zone
[13] = KCTC5786, antibacterial agent concentration 0.1%, 8 mm paper disk, 50 μl, — = negative, read-out: CZ (mm) clear zone
[14] = KCTC5786, antibacterial agent concentration 1%, 8 mm paper disk, 50 μl, — = negative, read-out: CZ (mm) clear zone
[15] = KCTC5786, 8 mm paper disk, 50 μl, — = negative, read-out: CZ (mm) clear zone
[16] = KCTC5786, read-out: CZ (mm) clear zone
[17] = antibacterial agent concentration 0.1%, 8 mm paper disk, 50 μl, — = negative
[18] = antibacterial agent concentration 1%, 8 mm paper disk, 50 μl, — = negative

| Compound | Clear zone (mm), primer [1, 10] | Clear zone (mm), primer [1, 11] | zone of inhibition at 0.1 % [2, 13] [mm] | zone of inhibition at 1 % [2, 14] [mm] | antibacterial activity relative to other commercially used antibacterial agents [2] [times] | clear zone after thermal shock [3] [mm] | clear zone before thermal shock [3] [mm] | antibacterial activity after thermal shock [3] | MIC minimum inhibitory concentration [2] [%] | other results |
| --- | --- | --- | --- | --- | --- | --- | --- | --- | --- | --- |
| O=[N+]([O-])C(Br)(CO)CO [2-bromo-2-nitropropan-1,3-diol] | 2 mm | 16.5 mm | 8 | 18.5 | 10 | 25 | 20 | maintained the excellent antibacterial activity | – | Clear zone (mm), adhesive [1, 4]: 5.5 mm; Clear zone (mm), adhesive [1, 5]: 10.5 mm; Clear zone (mm), adhesive [1, 6]: 13 mm; Clear zone (mm), adhesive [1, 7]: 14.5 mm; Clear zone (mm), primer [1, 8]: 9 mm; Clear zone (mm), primer [1, 9]: 9 mm; zone of inhibition at 0.01 % [2, 12]: 1.5 mm |
| N#CC(Br)(Br)C(N)=O [2,2-dibromo-2-cyanoacetamide] | 1 mm | 6.5 mm | ≥ 39 | ≥ 39 | 10 | 18.5 | 39.5 | maintained the excellent antibacterial activity | – | Clear zone (mm), adhesive [1, 4]: 2 mm; Clear zone (mm), adhesive [1, 5]: 2.5 mm; Clear zone (mm), adhesive [1, 6]: ≧26 mm; Clear zone (mm), adhesive [1, 7]: ≧30.5 mm; Clear zone (mm), primer [1, 8]: 1.5 mm; zone of inhibition at 0.001 % [2, 15]: ≥ 39 mm; zone of inhibition at 0.01 % [2, 12]: ≥ 39 mm |
| O=c1[nH]sc2ccccc12 [1,2-benzisothiazol-3(2H)-one] | 8.5 mm | 17.5 mm | 6.5 | 13.5 | 10 | 14.5 | 16 | maintained the excellent antibacterial activity | – | Clear zone (mm), adhesive [1, 4]: 15 mm; Clear zone (mm), adhesive [1, 5]: 18 mm; Clear zone (mm), adhesive [1, 6]: 19 mm; Clear zone (mm), adhesive [1, 7]: 25 mm; Clear zone (mm), primer [1, 9]: 7.5 mm; zone of inhibition at 0.001 % [2, 15]: 1 mm; zone of inhibition at 0.01 % [2, 12]: 2.5 mm |
| Cc1cc(O)cc(C)c1Cl [4-chloro-3,5-dimethylphenol, reference compound] | – | – | 1 | 16 | – | – | – | – | 0.1 | – |
| Cn1sccc1=O [2-methyl-4-isothiazoline-3-one, reference compound] | – | – | – | – | – | – | – | – | 0.1 | zone of inhibition at 0.1 % [2, 16]: 5 mm; zone of inhibition at 1 % [2, 16]: 12 mm |
| CCCCNC(=O)OCC#CI [3-iodo-2-propynyl n-butylcarbamate, 97%, 3-iodo-2-propynyl n-butylcarbamate, reference compound] | – | – | 3 | 5.5 | – | – | – | – | 0.1 | – |
| c1ccc2[nH]c(-c3cscn3)nc2c1 [Thiabendazole minimum 99%, Thiabendazole, reference compound] | – | – | – | – | – | – | – | – | ≥ 1 | – |
| [O-]n1ccccc1=S.[O-]n1ccccc1=S.[Zn+2] [1-hydroxypyridine-2-thionezinc, reference compound] | – | – | – | – | – | – | – | – | 0.1 | CZ (mm) clear zone [2, 17]: 1 mm; CZ (mm) clear zone [2, 18]: 3.5 mm |
| O=C(Nc1ccc(Cl)cc1)Nc1ccc(Cl)c(Cl)c1 [3,4,4-trichloro-Carbanilide, reference compound] | – | – | – | – | – | – | – | – | ≥ 1 | – |
| O=C(CBr)OCc1ccccc1 [Benzyl-2-bromoacetate, benzyl-2-bromoacetate] | ≧34 mm | ≧39 mm | ≥ 39 | ≥ 39 | 10 | 36 | 39 | maintained the excellent antibacterial activity | – | Clear zone (mm), adhesive [1, 4]: 24 mm; Clear zone (mm), adhesive [1, 5]: 30 mm; Clear zone (mm), adhesive [1, 6]: 34 mm; Clear zone (mm), adhesive [1, 7]: ≧39 mm; Clear zone (mm), primer [1, 8]: ≧26 mm; Clear zone (mm), primer [1, 9]: ≧32 mm; zone of inhibition at 0.001 % [2, 15]: 35 mm; zone of inhibition at 0.01 % [2, 12]: ≥ 39 mm |
| Molybdenum (VI) oxide [Molybdenum (VI) oxide 99.99%, reference compound] | – | – | – | – | – | – | – | – | 1.0 | CZ (mm) clear zone [2, 18]: 6 mm |
| N#Cc1c(Cl)c(Cl)c(Cl)c(C#N)c1Cl [Chlorothalonil, reference compound] | – | – | 2 | 4 | – | – | – | – | 0.1 | – |
| Oc1cc(Cl)ccc1Oc1ccc(Cl)cc1Cl [Irgasan, irgasan] | 1.5 mm | 6 mm | – | – | 10 | 13 | 13 | maintained the excellent antibacterial activity | – | Clear zone (mm), primer [1, 8]: 3.5 mm; Clear zone (mm), primer [1, 9]: 1.5 mm; zone of inhibition at 0.01 % [2, 16]: 5 mm; zone of inhibition at 0.1 % [2, 16]: 11 mm; zone of inhibition at 1 % [2, 16]: 14 mm |
| O=CCCCC=O [Glutar-di-aldehyde, 50 wt %, Glutar-di-aldehyde, reference compound] | – | – | – | – | – | – | – | – | 0.1 | CZ (mm) clear zone [2, 17]: 6 mm; CZ (mm) clear zone [2, 18]: 12 mm |
